Laboratory results published in ChEMBL document CHEMBL1137733, “Studies on the interaction of caffeine with bovine hemoglobin” (Eur J Med Chem, 2009).

Target: albumin (Homo sapiens, UniProt P02768)
Test: Binding affinity to human plasma albumin by ultracentrifugation
Type: cell-free
Details: read-out: PB (converted)

albumin, sequence (P02768 whole entry): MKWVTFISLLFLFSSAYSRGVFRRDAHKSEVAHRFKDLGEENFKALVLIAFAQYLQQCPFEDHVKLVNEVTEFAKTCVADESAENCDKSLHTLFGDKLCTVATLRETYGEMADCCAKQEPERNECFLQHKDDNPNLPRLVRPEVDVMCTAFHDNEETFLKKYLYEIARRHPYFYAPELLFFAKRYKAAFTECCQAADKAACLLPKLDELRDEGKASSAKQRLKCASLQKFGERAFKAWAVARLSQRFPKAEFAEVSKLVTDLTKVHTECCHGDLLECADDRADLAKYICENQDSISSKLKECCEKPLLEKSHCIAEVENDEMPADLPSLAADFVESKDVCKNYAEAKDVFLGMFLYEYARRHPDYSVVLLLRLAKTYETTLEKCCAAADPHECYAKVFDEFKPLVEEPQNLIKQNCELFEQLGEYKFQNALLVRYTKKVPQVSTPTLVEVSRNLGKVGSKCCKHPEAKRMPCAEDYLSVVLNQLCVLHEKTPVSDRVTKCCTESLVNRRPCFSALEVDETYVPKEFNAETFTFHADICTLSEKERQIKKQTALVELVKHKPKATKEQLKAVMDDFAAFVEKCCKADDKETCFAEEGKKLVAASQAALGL

`Cn1c(=O)c2c(ncn2C)n(C)c1=O` [CAFFEINE] showed a fraction unbound of 0.622.
